In patent publication US9133162B2, “Substituted quinoline compounds and methods of use” (SUNSHINE LAKE PHARMA CO., LTD., priority 2011, dated 2015):
pIC50: −log10 of the molar value. “Also recorded” adds a separate entry of the source.

Experiments:
c-Met (h) = c-Met (h) (Homo sapiens (Human), UniProt P08581); test: c-Met (h) kinase assay (33P-ATP filter, Millipore); format: biochemical
[1] = system: NCI-H441 lung adenocarcinoma epithelial cells; test: NCI-H441 tumor xenograft model, TGI; format: in vivo, athymic nude mice; settings: 20 mg/kg p.o. QD, 21 days
Protocol: (§1) The efficacy of compounds disclosed herein was evaluated in a standard murine model of tumorigenesis. Human tumor cells (U87MG glioblastoma cells, MKN45 Gastric Adenocarcinoma cells, Caki-1 renal carcinoma cells, HUH 7 hepatocarcinoma cells, NCI-H441 lung adenocarcinoma epithelial cells, MDA-MB-231 breast adenocarcinoma cells, SMMC-7721 hepatoma cells, all from ATCC) were expended in culture, harvested, and injected subcutaneously onto the rear flank of 6-7 week old female athymic nude mice (BALB/cA nu/nu, Shanghai SLAC Laboratory Animal, Co.) (n=10 for vehicle group, n=8 for each dosing group). When tumors reached a volume of 100-250 mm^3, animals were randomly divided into vehicle control (for example, 2% HPMC+1% Tween-80 in water) and compound groups. […]
(§2) Progression of tumor growth is assessed by tumor volumes and recorded as a function of time. The long (L) and short (W) axes of the subcutaneous tumors were measured with calipers twice weekly, and the tumor volume (TV) calculated as (L×W^2)/2). TGI was calculated from the difference between the median tumor volumes of vehicle-treated and drug-treated mice, expressed as a percentage of the median tumor volume of the vehicle-treated control group, by the following relation: […]

[2] = system: Caki-1 renal carcinoma cells; test: Caki-1 tumor xenograft model, TGI; format: in vivo, athymic nude mice; settings: 20 mg/kg p.o. QD, 21 days
Protocol: as §1, §2

[3] = system: MDA-MB-231 breast adenocarcinoma cells; test: MDA-MB-231 tumor xenograft model, TGI; format: in vivo, athymic nude mice; settings: for TGI % (on last day of dosing) MDA-MB-231: 21 days (Day 21); for inhibition of growth of MDA-MB-231 xenograft tumors (in words): 10, 20 and 40 mg/kg p.o. QD, 21 days
Protocol: The efficacy of compounds disclosed herein was evaluated in a standard murine model of tumorigenesis. Human tumor cells (U87MG glioblastoma cells, MKN45 Gastric Adenocarcinoma cells, Caki-1 renal carcinoma cells, HUH 7 hepatocarcinoma cells, NCI-H441 lung adenocarcinoma epithelial cells, MDA-MB-231 breast adenocarcinoma cells, SMMC-7721 hepatoma cells, all from ATCC) were expended in culture, harvested, and injected subcutaneously onto the rear flank of 6-7 week old female athymic nude mice (BALB/cA nu/nu, Shanghai SLAC Laboratory Animal, Co.) (n=10 for vehicle group, n=8 for each dosing group). When tumors reached a volume of 100-250 mm^3, animals were randomly divided into vehicle control (for example, 2% HPMC+1% Tween-80 in water) and compound groups. Subsequent administration of compound by oral gavage (for example, 3-50 mpk/dose, dissolved in 2% HPMC+1% Tween-80 in water) begins anywhere from day 0 to day 15 post tumor cell challenge and generally continues with once a day for the duration of the experiment. The studies using tumor xenograft animal models described herein were performed at Shanghai Institute of Materia Medica, Chinese Academy of Sciences, 555 Zu Chong Zhi Road, Zhang Jiang Hi-Tech Park, Pudong, Shanghai, 201203, China.
Progression of tumor growth is assessed by tumor volumes and recorded as a function of time. The long (L) and short (W) axes of the subcutaneous tumors were measured with calipers twice weekly, and the tumor volume (TV) calculated as (L×W^2)/2). TGI was calculated from the difference between the median tumor volumes of vehicle-treated and drug-treated mice, expressed as a percentage of the median tumor volume of the vehicle-treated control group, by the following relation:
Initial statistical analysis is done by repeated measures analysis of variance (RMANOVA). Followed by Scheffe psot hoc testing for multiple comparisons. Vehicle alone (2% HPMC+1% Tween-80, or the like) is the negative control.
FIG. 2 illustrates the tumor growth inhibition effects of Example 1 in MDA-MB-231 breast adenocarcinoma model. Example 1 was administrated orally (p.o.) at doses of 10, 20 and 40 mg/kg once a day (QD), for 21 consecutive days.
FIG. 3 illustrates the tumor growth inhibition effects of Example 2 in MDA-MB-231 breast adenocarcinoma model. Example 2 was administrated orally (p.o.) at doses of 10, 20 and 40 mg/kg once a day (QD), for 21 consecutive days.

Axl (h) = Axl (h) (Homo sapiens (Human), UniProt P30530); test: Axl (h) kinase assay; format: biochemical
Chain of Axl (h) (P30530 26-894): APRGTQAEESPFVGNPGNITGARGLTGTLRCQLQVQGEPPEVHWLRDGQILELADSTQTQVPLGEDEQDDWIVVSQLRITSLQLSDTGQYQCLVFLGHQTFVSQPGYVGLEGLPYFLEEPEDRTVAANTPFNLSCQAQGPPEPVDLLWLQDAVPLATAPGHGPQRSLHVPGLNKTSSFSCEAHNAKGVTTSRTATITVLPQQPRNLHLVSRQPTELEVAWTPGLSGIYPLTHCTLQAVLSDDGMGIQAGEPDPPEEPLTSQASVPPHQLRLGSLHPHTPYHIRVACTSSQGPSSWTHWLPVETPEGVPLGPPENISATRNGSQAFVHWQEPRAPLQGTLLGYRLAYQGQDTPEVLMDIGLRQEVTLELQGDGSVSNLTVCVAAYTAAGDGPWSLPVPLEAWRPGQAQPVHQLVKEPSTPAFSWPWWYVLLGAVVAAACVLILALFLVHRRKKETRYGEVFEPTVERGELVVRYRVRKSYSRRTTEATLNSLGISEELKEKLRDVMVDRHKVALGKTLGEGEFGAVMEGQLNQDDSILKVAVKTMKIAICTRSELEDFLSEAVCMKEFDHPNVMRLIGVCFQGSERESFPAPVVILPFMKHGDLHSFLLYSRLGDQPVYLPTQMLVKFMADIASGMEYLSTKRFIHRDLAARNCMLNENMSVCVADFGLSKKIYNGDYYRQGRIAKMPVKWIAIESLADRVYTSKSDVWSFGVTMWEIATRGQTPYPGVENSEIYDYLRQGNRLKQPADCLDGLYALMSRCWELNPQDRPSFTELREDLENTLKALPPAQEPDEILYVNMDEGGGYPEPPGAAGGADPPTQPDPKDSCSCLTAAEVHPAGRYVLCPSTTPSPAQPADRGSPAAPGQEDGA
Protocol: Compound dilutions are performed in DMSO and added to assay wells to a final DMSO concentration of 1%. Each data point is measured in duplicate, and at least two duplicate assays are performed for each individual compound determination. Enzyme is added to final concentrations of 10 nM or 20 nM, for example.
The above assay procedure can be used to determine the IC50 for inhibition and/or the inhibition constant, Ki.
(specific activity approx. 500 cpm/pmol, concentration as required). The reaction is initiated by the addition of the MgATP mix. After incubation for 40 minutes at room temperature, the reaction is stopped by the addition of 3% phosphoric acid solution. 10 μL of the reaction is then spotted onto a P30 filtermat and washed three times for 5 minutes in 75 mM phosphoric acid and once in methanol prior to drying and scintillation counting.

U87MG glioblastoma cells = test: U87MG tumor xenograft model, TGI; format: in vivo, athymic nude mice; settings: 10 mg/kg p.o. QD, 16 days
Protocol: as §1, §2

c-Met = c-Met (Homo sapiens (Human), UniProt P08581); test: cell-based
Chain of c-Met (P08581 25-1390): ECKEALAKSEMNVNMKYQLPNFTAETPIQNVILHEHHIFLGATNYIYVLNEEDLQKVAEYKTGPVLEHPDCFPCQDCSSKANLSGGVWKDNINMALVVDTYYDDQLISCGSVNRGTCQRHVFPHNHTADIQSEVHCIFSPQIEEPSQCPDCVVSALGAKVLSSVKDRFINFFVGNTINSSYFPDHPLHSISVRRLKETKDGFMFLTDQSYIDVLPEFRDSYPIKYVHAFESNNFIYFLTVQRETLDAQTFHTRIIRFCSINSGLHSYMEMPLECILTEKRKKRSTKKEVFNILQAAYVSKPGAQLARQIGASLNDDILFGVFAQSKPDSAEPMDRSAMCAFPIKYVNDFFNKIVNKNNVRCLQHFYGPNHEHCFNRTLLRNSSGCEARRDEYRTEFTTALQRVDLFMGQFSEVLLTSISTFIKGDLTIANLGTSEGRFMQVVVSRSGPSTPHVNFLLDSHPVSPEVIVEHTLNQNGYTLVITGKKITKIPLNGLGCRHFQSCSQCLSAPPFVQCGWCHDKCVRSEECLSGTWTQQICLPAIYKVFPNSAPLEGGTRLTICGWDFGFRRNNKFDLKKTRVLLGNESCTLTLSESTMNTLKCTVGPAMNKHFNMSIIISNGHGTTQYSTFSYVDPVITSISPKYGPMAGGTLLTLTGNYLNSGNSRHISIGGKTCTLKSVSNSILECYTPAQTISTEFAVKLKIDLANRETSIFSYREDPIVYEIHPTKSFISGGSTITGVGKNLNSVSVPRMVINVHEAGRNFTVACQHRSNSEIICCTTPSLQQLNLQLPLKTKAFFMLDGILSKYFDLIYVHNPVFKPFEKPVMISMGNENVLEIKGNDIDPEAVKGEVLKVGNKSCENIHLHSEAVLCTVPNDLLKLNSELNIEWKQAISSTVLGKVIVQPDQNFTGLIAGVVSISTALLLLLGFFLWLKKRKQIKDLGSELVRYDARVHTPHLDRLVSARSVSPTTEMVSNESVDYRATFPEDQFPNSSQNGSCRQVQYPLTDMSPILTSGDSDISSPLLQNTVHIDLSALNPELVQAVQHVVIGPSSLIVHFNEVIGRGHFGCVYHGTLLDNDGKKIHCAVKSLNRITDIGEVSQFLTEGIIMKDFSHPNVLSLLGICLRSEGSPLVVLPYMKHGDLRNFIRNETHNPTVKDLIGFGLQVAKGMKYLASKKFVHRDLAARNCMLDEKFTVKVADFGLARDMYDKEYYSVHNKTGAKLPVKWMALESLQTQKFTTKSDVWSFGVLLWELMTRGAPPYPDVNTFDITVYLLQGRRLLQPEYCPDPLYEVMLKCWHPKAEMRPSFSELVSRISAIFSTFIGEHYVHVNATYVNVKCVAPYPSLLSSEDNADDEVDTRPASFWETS
Protocol: The autophosphorylation level was determined Sandwich-ELISA technique. IC50 values are determined by testing 8 compound concentrations in semi-logarithmic steps (each concentration in duplicates). The steps of the cellular phosphorylation assay are illustrated in FIG. 1.
c-Met Phosphorylation Assay:
The human gastric adenocarcinoma cell line MKN45 is known to overexpress c-Met. c-Met overexpression results in a constitutive, ligand-independent autophosphorylation of the kinase. […] Phospho-MET signal is subsequently quantified by Sandwich-ELISA technique. The assay is validated based on known inhibitors of MET kinase activity.

KDR (h) (VEGF-R2(h)) = KDR (h) (VEGF-R2(h)) (Homo sapiens (Human), UniProt P35968); test: KDR (h) (VEGF-R2(h)) kinase assay; format: biochemical
Chain of KDR (h) (VEGF-R2(h)) (P35968 20-1356): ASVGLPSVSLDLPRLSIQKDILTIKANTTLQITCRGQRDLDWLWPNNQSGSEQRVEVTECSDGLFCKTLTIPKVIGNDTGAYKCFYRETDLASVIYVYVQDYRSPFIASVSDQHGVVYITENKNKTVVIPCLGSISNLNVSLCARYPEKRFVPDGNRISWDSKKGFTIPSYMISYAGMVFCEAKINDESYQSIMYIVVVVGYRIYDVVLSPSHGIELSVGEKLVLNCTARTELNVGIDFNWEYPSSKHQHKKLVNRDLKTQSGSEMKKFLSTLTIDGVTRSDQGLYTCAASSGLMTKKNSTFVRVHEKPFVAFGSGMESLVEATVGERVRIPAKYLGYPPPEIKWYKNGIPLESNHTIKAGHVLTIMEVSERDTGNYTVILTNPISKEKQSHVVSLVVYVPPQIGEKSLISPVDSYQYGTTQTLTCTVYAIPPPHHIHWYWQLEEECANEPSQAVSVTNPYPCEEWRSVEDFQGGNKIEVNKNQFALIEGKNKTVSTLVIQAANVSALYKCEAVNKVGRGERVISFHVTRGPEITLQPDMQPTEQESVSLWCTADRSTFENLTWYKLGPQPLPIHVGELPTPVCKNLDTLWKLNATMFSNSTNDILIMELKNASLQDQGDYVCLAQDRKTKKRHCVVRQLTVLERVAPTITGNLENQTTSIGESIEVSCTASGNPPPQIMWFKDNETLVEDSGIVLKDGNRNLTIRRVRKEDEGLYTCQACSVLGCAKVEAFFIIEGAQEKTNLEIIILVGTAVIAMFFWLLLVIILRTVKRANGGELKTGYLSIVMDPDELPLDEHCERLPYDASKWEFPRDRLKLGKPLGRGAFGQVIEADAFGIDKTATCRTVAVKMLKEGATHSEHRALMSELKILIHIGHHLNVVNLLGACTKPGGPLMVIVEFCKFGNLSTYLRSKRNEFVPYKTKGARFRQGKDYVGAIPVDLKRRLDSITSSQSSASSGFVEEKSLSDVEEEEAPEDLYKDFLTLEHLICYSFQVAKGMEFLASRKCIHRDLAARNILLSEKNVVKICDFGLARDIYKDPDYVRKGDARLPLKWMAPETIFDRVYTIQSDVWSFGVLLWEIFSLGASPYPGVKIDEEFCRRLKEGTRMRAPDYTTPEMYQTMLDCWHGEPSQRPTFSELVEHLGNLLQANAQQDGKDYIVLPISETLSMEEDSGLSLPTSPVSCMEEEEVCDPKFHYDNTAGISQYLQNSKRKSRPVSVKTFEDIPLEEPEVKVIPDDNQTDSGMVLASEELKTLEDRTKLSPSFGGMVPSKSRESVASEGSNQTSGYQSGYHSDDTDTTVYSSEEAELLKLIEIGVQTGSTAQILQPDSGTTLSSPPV
Protocol: Kinase assays can be performed by measurement of incorporation of —^33P ATP into immobilized myelin basic protein (MBP). High binding white 384 well plates (Greiner) are coated with MBP (Sigma #M-1891) by incubation of 60 μl/well of 20 μg/ml MBP in Tris-buffered saline (TBS; 50 mM Tris pH 8.0, 138 mM NaCl, 2.7 mM KCl) for 24 hours at 4° C. Plates are washed 3× with 100 μl TBS. Kinase reactions are carried out in a total volume of 34 μl in kinase buffer (5 mM Hepes pH 7.6, 15 mM NaCl, 0.01% bovine gamma globulin (Sigma #I-5506), 10 mM MgCl2, 1 mM DTT, 0.02% TritonX-100). Compound dilutions are performed in DMSO and added to assay wells to a final DMSO concentration of 1%. Each data point is measured in duplicate, and at least two duplicate assays are performed for each individual compound determination. Enzyme is added to final concentrations of 10 nM or 20 nM, for example. A mixture of unlabeled ATP and —^33P ATP is added to start the reaction (2×10^6 cpm of —^33P ATP per well (3000 Ci/mmole) and 10 μM unlabeled ATP, typically. The reactions are carried out for 1 hour at room temperature with shaking. Plates are washed 7× with TBS, followed by the addition of 50 μl/well scintillation fluid (Wallac). Plates are read using a Wallac Trilux counter. This is only one format of such assays; various other formats are possible, as known to one skilled in the art.
The above assay procedure can be used to determine the IC50 for inhibition and/or the inhibition constant, Ki. The IC50 is defined as the concentration of compound required to reduce the enzyme activity by 50% under the condition of the assay. The IC50 value is estimated by preparing a 10 point curve using a log dilution series (for example, a typical curve may be prepared using the following compound concentrations; 100 μM, 30 μM, 10 μM, 3 μM, 1 μM, 0.3 μM, 0.1 μM, 0.03 μM, 0.01 μM and […]).
The kinase assays described herein were performed at Millipore UK Ltd, Dundee Technology Park, Dundee DD2 1SW, UK
KDR (h) (VEGF-R2(h)) Assay […]

[4] = system: MKN45 Gastric Adenocarcinoma cells; test: MKN45 tumor xenograft model, TGI; format: in vivo, athymic nude mice; settings: 20 mg/kg p.o. QD, 16 days
Protocol: as §1, §2

human VEGF-R2 = human VEGF-R2 (Homo sapiens (Human), UniProt P35968); test: VEGF-R2 cellular phosphorylation assay in HUE cells (Sandwich-ELISA); format: cell-based; settings: VEGF-A stimulated
Chain of human VEGF-R2 (P35968 20-1356): as above
Protocol: (§3) The autophosphorylation level was determined Sandwich-ELISA technique.
VEGF-R2 Phosphorylation Assay:
Immortalized human umbilical vein endothelial cells (HUE) are known to overexpress human VEGF-R2. Stimulation of these cells with its physiological ligand VEGF-A results in a robust receptor autophosphorylation. Compounds are preincubated before cell stimulation to allow thorough target binding. Stimulation conditions are optimized to determine dose-related inhibition of the phospho-VEGF-R2 signal, which is subsequently quantified by Sandwich-ELISA technique. The assay is validated based on known inhibitors of VEGF-R2 kinase activity.

[5] = system: HUH 7 hepatocarcinoma cells; test: Huh-7 tumor xenograft model, TGI; format: in vivo, athymic nude mice; settings: 20 mg/kg p.o. QD, 14 days
Protocol: as §1, §2

AXL = AXL (Homo sapiens (Human), UniProt P30530); test: Axl cellular phosphorylation assay in transfected MEF cells (Sandwich-ELISA); format: cell-based; settings: MEF cells expressing full-length AXL
Chain of AXL (P30530 26-894): as the sequence (P30530 26-894) above
Protocol: as §3
Axl Phosphorylation Assay:
Cellular AXL phosphorylation assay was generated on a mouse embryonal fibroblast (MEF) background. Cells were transfected to express a full-length AXL protein. […] PhosphoAXL levels are quantified by Sandwich-ELISA technique.

Chain of c-Met (h) (P08581 25-1390): as the sequence (P08581 25-1390) above

## Cc1c(C(=O)Nc2ccc(Oc3ccnc4cc(OC[C@@H](C)O)ccc34)cc2)c(=O)n(-c2ccccc2)n1C [Example 11, (R)—N-(4-((7-(2-hydroxypropoxy)quinolin-4-yl)oxy)phenyl)-1,5-dimethyl-3-oxo-2-phenyl-2,3-dihydro-1H-pyrazole-4-carboxamide]
c-Met (h)
  pIC50: 7.82

## Cc1c(C(=O)Nc2ccc(Oc3ccnc4cc(OC(C)(C)CO)ccc34)c(F)c2)c(=O)n(-c2ccccc2)n1C [Example 14, N-(3-fluoro-4-((7-((1-hydroxy-2-methylpropan-2-yl)oxy)quinolin-4-yl)oxy)phenyl)-1,5-dimethyl-3-oxo-2-phenyl-2,3-dihydro-1H-pyrazole-4-carboxamide]
c-Met (h)
  pIC50: 7.57

## Cc1c(C(=O)Nc2ccc(Oc3ccnc4cc(OCC(C)(C)O)ccc34)c(F)c2)c(=O)n(-c2ccccc2)n1C [Example 1, N-(3-fluoro-4-((7-(2-hydroxy-2-methylpropoxy)quinolin-4-yl)oxy)phenyl)-1,5-dimethyl-3-oxo-2-phenyl-2,3-dihydro-1H-pyrazole-4-carboxamide]
[1]
  TGI % (on last day of dosing) NCI-H441: 97%
[2]
  TGI % (on last day of dosing) Caki-1: 87%
[3]; 10 mg/kg p.o. QD
  TGI % (on last day of dosing) MDA-MB-231: 97%
[3]; 20 mg/kg p.o. QD
  TGI % (on last day of dosing) MDA-MB-231: 112%
[3]; 40 mg/kg p.o. QD
  TGI % (on last day of dosing) MDA-MB-231: 120%
[3]
  inhibition of growth of MDA-MB-231 xenograft tumors (in words): inhibited the growth; also recorded: statistically significant, dose-dependent inhibition
Axl (h)
  pIC50: 7.96
U87MG glioblastoma cells
  TGI % (on last day of dosing) U87MG: 98%
c-Met
  pIC50: 8.16
KDR (h) (VEGF-R2(h))
  pIC50: 7.43
[4]
  TGI % (on last day of dosing) MKN45: 97%
c-Met (h)
  pIC50: 7.72
Human VEGF-R2
  pIC50: 8.77
[5]
  TGI % (on last day of dosing) Huh-7: 53%
AXL
  pIC50: > 9.00

## Cc1c(C(=O)Nc2ccc(Oc3ccnc4cc(OC[C@H](C)O)ccc34)cc2)c(=O)n(-c2ccccc2)n1C [Example 12, (S)—N-(4-((7-(2-hydroxypropoxy)quinolin-4-yl)oxy)phenyl)-1,5-dimethyl-3-oxo-2-phenyl-2,3-dihydro-1H-pyrazole-4-carboxamide]
c-Met (h)
  pIC50: 7.89

## COc1cc2c(Oc3ccc(NC(=O)c4c(C)n(C)n(-c5ccccc5)c4=O)cc3F)ccnc2cc1OCC(C)(C)O [Example 4, N-(3-fluoro-4-((7-(2-hydroxy-2-methylpropoxy)-6-methoxyquinolin-4-yl)oxy)phenyl)-1,5-dimethyl-3-oxo-2-phenyl-2,3-dihydro-1H-pyrazole-4-carboxamide]
KDR (h) (VEGF-R2(h))
  pIC50: 7.40
c-Met (h)
  pIC50: 8.00

## Cc1c(C(=O)Nc2ccc(Oc3ccnc4cc(OCC(C)(C)O)ccc34)cc2)c(=O)n(-c2ccccc2)n1C [Example 9, N-(4-((7-(2-hydroxy-2-methylpropoxy)quinolin-4-yl)oxy)phenyl)-1,5-dimethyl-3-oxo-2-phenyl-2,3-dihydro-1H-pyrazole-4-carboxamide]
U87MG glioblastoma cells
  TGI % (on last day of dosing) U87MG: 97%
c-Met (h)
  pIC50: 7.89

## Cc1c(C(=O)Nc2ccc(Oc3ccnc4cc(OC[C@@H](C)O)ccc34)c(F)c2)c(=O)n(-c2ccccc2)n1C [Example 2, (R)—N-(3-fluoro-4-((7-(2-hydroxypropoxy)quinolin-4-yl)oxy)phenyl)-1,5-dimethyl-3-oxo-2-phenyl-2,3-dihydro-1H-pyrazole-4-carboxamide]
[3]; 10 mg/kg p.o. QD
  TGI % (on last day of dosing) MDA-MB-231: 72%
[3]; 20 mg/kg p.o. QD
  TGI % (on last day of dosing) MDA-MB-231: 87%
[3]; 40 mg/kg p.o. QD
  TGI % (on last day of dosing) MDA-MB-231: 96%
[3]
  inhibition of growth of MDA-MB-231 xenograft tumors (in words): inhibited the growth; also recorded: statistically significant, dose-dependent inhibition
KDR (h) (VEGF-R2(h))
  pIC50: 7.64
[4]
  TGI % (on last day of dosing) MKN45: 22%
c-Met (h)
  pIC50: 8.15
